Reference: ChEMBL document CHEMBL3885881, “DrugMatrix”

Organism: Rattus norvegicus
Test: DrugMatrix - Regimen: Daily Repeat
Assay type: toxicity, organism-based, Sprague-Dawley
Design: regimen Daily Repeat, gender Male, age 6-8 weeks
Settings: in vivo, sc, route subcutaneous, […]; for ABSOLUTE BASOPHIL / ABSOLUTE EOSINOPHIL / ABSOLUTE LYMPHOCYTE / ABSOLUTE MONOCYTE / ABSOLUTE SEGMENTED NEUTROPHIL / BASOPHIL / EOSINOPHIL / ERYTHROCYTE COUNT / HEMATOCRIT / HEMOGLOBIN / LEUKOCYTE COUNT / LYMPHOCYTE / MEAN CORPUSCULAR HEMOGLOBIN / MEAN CORPUSCULAR HEMOGLOBIN CONCENTRATION / MEAN CORPUSCULAR VOLUME / MONOCYTE / NEUTROPHIL / NUCLEATED RED BLOOD CELLS / PLATELET COUNT: tissue Blood; for ALANINE AMINOTRANSFERASE / ALBUMIN / ALKALINE PHOSPHATASE / ASPARTATE AMINOTRANSFERASE / BLOOD UREA NITROGEN / CARBON DIOXIDE / CHLORIDE / CHOLESTEROL / CREATINE PHOSPHOKINASE / CREATININE / GLUCOSE / LACTATE DEHYDROGENASE / LIPASE / PHOSPHORUS / POTASSIUM / SODIUM / TOTAL BILIRUBIN / TOTAL PROTEIN / URIC ACID: tissue Plasma
[1] = 50 mg/kg, 120 h, dose level Low, time 5 day
[2] = 150 mg/kg, 72 h, dose level M2, time 3 day
[3] = 150 mg/kg, 120 h, dose level M2, time 5 day

Compound: CC(C)(c1ccc(O)cc1)c1ccc(O)cc1 [BISPHENOL A]
- ABSOLUTE BASOPHIL [1]: 0 CELLS/uL
- ABSOLUTE EOSINOPHIL [1]: 0 CELLS/uL
- ABSOLUTE LYMPHOCYTE [1]: 15258.67 CELLS/uL
- ABSOLUTE MONOCYTE [1]: 508.33 CELLS/uL
- ABSOLUTE SEGMENTED NEUTROPHIL [1]: 1433 CELLS/uL
- BASOPHIL [1]: 0%
- EOSINOPHIL [1]: 0%
- ERYTHROCYTE COUNT [1]: 5.65 x10E6/uL
- HEMATOCRIT [1]: 35.13%
- HEMOGLOBIN [1]: 13.73 G/DL
- LEUKOCYTE COUNT [1]: 17.2 x10E3/uL
- LYMPHOCYTE [1]: 89%
- MEAN CORPUSCULAR HEMOGLOBIN [1]: 24.33 pg
- MEAN CORPUSCULAR HEMOGLOBIN CONCENTRATION [1]: 39.07 G/DL
- MEAN CORPUSCULAR VOLUME [1]: 62.23 fL
- MONOCYTE [1]: 2.33%
- NEUTROPHIL [1]: 8.67%
- NUCLEATED RED BLOOD CELLS [1]: 0 /100WBC
- PLATELET COUNT [1]: 1289 x10E3/uL
- ALANINE AMINOTRANSFERASE [1]: 62.67 u/L
- ALBUMIN [1]: 3.57 G/DL
- ALKALINE PHOSPHATASE [1]: 300 u/L
- ASPARTATE AMINOTRANSFERASE [1]: 93 u/L
- BLOOD UREA NITROGEN [1]: 14.67 mg/dL
- CARBON DIOXIDE [1]: 24 mmol/L
- CHLORIDE [1]: 103.67 MEQ/L
- CHOLESTEROL [1]: 48.67 mg/dL
- CREATINE PHOSPHOKINASE [1]: 675.67 u/L
- CREATININE [1]: 0.15 mg/dL
- GLUCOSE [1]: 190.67 mg/dL
- LACTATE DEHYDROGENASE [1]: 256.67 u/L
- LIPASE [1]: 11.67 u/L
- PHOSPHORUS [1]: 13.4 mg/dL
- POTASSIUM [1]: 6.14 MEQ/L
- SODIUM [1]: 142.27 MEQ/L
- TOTAL BILIRUBIN [1]: 0.1 mg/dL
- TOTAL PROTEIN [1]: 5.27 G/DL
- URIC ACID [1]: 2.23 mg/dL
- ABSOLUTE BASOPHIL [2]: 0 CELLS/uL
- ABSOLUTE EOSINOPHIL [2]: 21 CELLS/uL
- ABSOLUTE LYMPHOCYTE [2]: 7705 CELLS/uL
- ABSOLUTE MONOCYTE [2]: 0 CELLS/uL
- ABSOLUTE SEGMENTED NEUTROPHIL [2]: 574 CELLS/uL
- BASOPHIL [2]: 0%
- EOSINOPHIL [2]: 0.33%
- ERYTHROCYTE COUNT [2]: 5.46 x10E6/uL
- HEMATOCRIT [2]: 34.77%
- HEMOGLOBIN [2]: 13.53 G/DL
- LEUKOCYTE COUNT [2]: 8.3 x10E3/uL
- LYMPHOCYTE [2]: 92.33%
- MEAN CORPUSCULAR HEMOGLOBIN [2]: 24.8 pg
- MEAN CORPUSCULAR HEMOGLOBIN CONCENTRATION [2]: 38.97 G/DL
- MEAN CORPUSCULAR VOLUME [2]: 63.67 fL
- MONOCYTE [2]: 0%
- NEUTROPHIL [2]: 7.33%
- NUCLEATED RED BLOOD CELLS [2]: 0 /100WBC
- PLATELET COUNT [2]: 1030 x10E3/uL
- ALANINE AMINOTRANSFERASE [2]: 54.67 u/L
- ALBUMIN [2]: 3.73 G/DL
- ALKALINE PHOSPHATASE [2]: 286.67 u/L
- ASPARTATE AMINOTRANSFERASE [2]: 73 u/L
- BLOOD UREA NITROGEN [2]: 9.33 mg/dL
- CARBON DIOXIDE [2]: 21 mmol/L
- CHLORIDE [2]: 96 MEQ/L
- CHOLESTEROL [2]: 72.67 mg/dL
- CREATINE PHOSPHOKINASE [2]: 254.33 u/L
- CREATININE [2]: 0.11 mg/dL
- GLUCOSE [2]: 143 mg/dL
- LACTATE DEHYDROGENASE [2]: 106.33 u/L
- LIPASE [2]: 8 u/L
- PHOSPHORUS [2]: 11.83 mg/dL
- POTASSIUM [2]: 5.68 MEQ/L
- SODIUM [2]: 141.4 MEQ/L
- TOTAL BILIRUBIN [2]: 0.1 mg/dL
- TOTAL PROTEIN [2]: 5.57 G/DL
- URIC ACID [2]: 0.53 mg/dL
- ABSOLUTE BASOPHIL [3]: 0 CELLS/uL
- ABSOLUTE EOSINOPHIL [3]: 91.33 CELLS/uL
- ABSOLUTE LYMPHOCYTE [3]: 12830 CELLS/uL
- ABSOLUTE MONOCYTE [3]: 122 CELLS/uL
- ABSOLUTE SEGMENTED NEUTROPHIL [3]: 2190 CELLS/uL
- BASOPHIL [3]: 0%
- EOSINOPHIL [3]: 0.67%
- ERYTHROCYTE COUNT [3]: 5.93 x10E6/uL
- HEMATOCRIT [3]: 36.47%
- HEMOGLOBIN [3]: 14.23 G/DL
- LEUKOCYTE COUNT [3]: 15.23 x10E3/uL
- LYMPHOCYTE [3]: 85%
- MEAN CORPUSCULAR HEMOGLOBIN [3]: 24.1 pg
- MEAN CORPUSCULAR HEMOGLOBIN CONCENTRATION [3]: 39.03 G/DL
- MEAN CORPUSCULAR VOLUME [3]: 61.63 fL
- MONOCYTE [3]: 0.67%
- NEUTROPHIL [3]: 13.67%
- NUCLEATED RED BLOOD CELLS [3]: 0.33 /100WBC
- PLATELET COUNT [3]: 1323.33 x10E3/uL
- ALANINE AMINOTRANSFERASE [3]: 59 u/L
- ALBUMIN [3]: 3.77 G/DL
- ALKALINE PHOSPHATASE [3]: 246.33 u/L
- ASPARTATE AMINOTRANSFERASE [3]: 81.67 u/L
- BLOOD UREA NITROGEN [3]: 13.33 mg/dL
- CARBON DIOXIDE [3]: 25.67 mmol/L
- CHLORIDE [3]: 102.67 MEQ/L
- CHOLESTEROL [3]: 61.67 mg/dL
- CREATINE PHOSPHOKINASE [3]: 253 u/L
- CREATININE [3]: 0.21 mg/dL
- GLUCOSE [3]: 193 mg/dL
- LACTATE DEHYDROGENASE [3]: 151.67 u/L
- LIPASE [3]: 10 u/L
- PHOSPHORUS [3]: 13.27 mg/dL
- POTASSIUM [3]: 5.91 MEQ/L
- SODIUM [3]: 142.47 MEQ/L
- TOTAL BILIRUBIN [3]: 0.13 mg/dL
- TOTAL PROTEIN [3]: 5.57 G/DL
- URIC ACID [3]: 2.37 mg/dL
